US8765107B2, “Process for straightening keratin fibres with a heating means and denaturing agents” (L'Oreal, priority 2006, dated 2014)

Test: hair relaxing with resorcinol under the conditions of M. Wong et al.
Conditions: resorcinol at a concentration of 40% and at a pH of 7
Text: The use of resorcinol at a concentration of 40% and at a pH of 7 for relaxing the hair has been reported by M. Wong et al.: M. Wong, G. Vis-surel, and J. Epps J. Soc. Cosmet. Chem. (1994), 45, 347-352.

In the case of `Oc1cccc(O)c1` [resorcinol], the “relaxing of the hair” value is reported as “do not relax it, but lead, at the very best, to slight uncurling”.
